System: serum-starved C2C12 myotubes
Assay: release of radiolabeled phenylalanine (total protein degradation) from serum-starved C2C12 myotubes
Type: cell-based, murine
Details: serum-free medium, 24 hours, vs serum (NC) and serum-free (NS) controls
Experimental: The role of EGCg alone and EGCg in combination with zinc in preventing muscle protein degradation was evaluated in an in vitro cell-based assay using serum-starved C2C12 myotubes, i.e., differentiated, elongated murine myoblasts, which are routinely used to model adult skeletal myofibers in cell culture. This assay measured the release of radiolabeled phenylalanine (Phe) from myotubes in response to a catabolic stimulus. Under normal growth conditions in the presence of growth factors supplied by 2% horse serum, the myotubes actively incorporated the amino acid Phe into newly synthesized muscle proteins. This is shown as the negative control for proteolysis (NC) in lane 1 of FIG. 1, i.e., the serum control. In the absence of the 2% horse serum, specifically C2C12 cultured in a serum-free DMEM medium, the muscle proteins began to break down, and phenylalanine was subsequently released as a free amino acid. This is shown as the serum-free, positive control for proteolysis (NS) in lane 2 of FIG. 1. […] 10 μM EGCg was added to serum-free and serum-starved myotubes alone, i.e., lane 3 of FIG. 1.
The experiment was replicated 2 times where n=6 over the same period of time for each sample, i.e., 24 hours for each sample. Results are expressed as mean±S.E.M and statistical analysis between groups was determined by one-way ANOVA followed by Tukey's test.

| Structure (SMILES) | total protein degradation (release of radiolabeled Phe) (10 μM EGCg alone, FIG. 1 lane 3) | total protein degradation (release of radiolabeled Phe) (10 μM zinc sulfate alone, FIG. 2 lane 3) |
| --- | --- | --- |
| O=C(O[C@@H]1Cc2c(O)cc(O)cc2O[C@@H]1c1cc(O)c(O)c(O)c1)c1cc(O)c(O)c(O)c1 [EGCg, epigallocatechin gallate] | greater inhibition of total protein degradation | – |
| O=S(=O)([O-])[O-].[Zn+2] [zinc, zinc sulfate] | – | promoted or increased total protein degradation |
